Reference: patent publication US20200179245A1, “HIGH EFFICIENCY SUNSCREEN COMPOSITION” (Deckner Consulting Services, LLC, priority 2015, published 2020)
Where two headings read alike, the source gives them in different places.

Experiments:
[1] = In vitro open chamber Franz diffusion cell penetration test; assay type: in vitro ADME; details: Strat-M membrane, 37° C.
Protocol: The Test sample was Barsoleil OMC-60 with a purity of 61.95%. The control sample was Octyl Methoxycinnamate with a purity of 100%. The samples were applied to a Strat-M membrane for testing using 5 skin preparations. A 6-cell semiautomatic Franz cell setup was used for all diffusion experiments. (Franz cell Diffusion is a standard in vitro method used for penetration). Circulating water baths were set to 37° C.±0.5° C. Strat-M synthetic membrane was used in place of cadaver skin. The Strat-M® membrane was placed between the donor and receptor compartments of the Franz cells. The available open area between donor and receptor compartments measured 0.635 cm2. The compartments were clamped together, ensuring that the shiny side of the membrane was facing the donor compartment. 1 mL of the test and control samples were used and placed in the donor chamber. The receptor compartment was filled with 0.9% saline:methanol (50:50) buffer. When the receptor solution reached 37° C., the sample was added to the donor compartment. An aliquot of each sample was removed from the receptor compartment at times T=0, 2, 4, 6 and 8 hours.
The dose of the receptor phase was analyzed by HPLC, and the amount of release per unit area (μg/cm2) was plotted against the square of time and the slope was the transdermal release rate. (See FIG. 3, control sample 20, test sample 30).

[2] = human skin, cited from earlier work

Structure (SMILES) | Cumulative C ([1]; penetration time 0 hrs) [μg/cm^2] | Cumulative C ([1]; penetration time 2 hrs) [μg/cm^2] | Cumulative C ([1]; penetration time 4 hrs) [μg/cm^2] | Cumulative C ([1]; penetration time 6 hrs) [μg/cm^2] | Cumulative C ([1]; penetration time 8 hrs) [μg/cm^2] | in vitro skin penetration rate / skin accumulation ([2]; oil in water emulsion) [μg/cm^2] | in vitro skin penetration rate / skin accumulation ([2]; water in oil emulsion) [μg/cm^2]
CCCCC(CC)COC(=O)C=Cc1ccc(OC)cc1 (stereo not shown) [OMC, Octyl Methoxycinnamate] | 0 | 16.7 | 55.2 | 96.5 | 144.9 | – | –
CCCCC(CC)COC(=O)/C=C/c1ccc(OC)cc1 (stereo not shown) [OMC-free] | – | – | – | – | – | 127.8 | 172.1±12.9
